Test system: db/db mice
Test: Antidiabetic effects in db/db mice (serum glucose and triglycerides after daily oral dosing)
Assay type: in vivo
Details: male db/db mice, 17 days
Description: C57BL/Ksola (db/db) mice have a defect in leptin signaling, leading to hyperphagia, obesity and diabetes. Moreover, unlike ob/ob mice on a C57BL/6J background, db/db mice on a C57BLKS background undergo failure of their insulin-producing pancreatic islet cells, resulting in progression from hyperinsulinemia (associated with peripheral insulin resistance) to hypoinsulinemic diabetes.
Male obese (db/db homozygote) C57BL/Ksola mice approximately 8 weeks of age, were obtained from Jackson Labs (Bar Harbor, Me.) and sorted into groups of 7 animals each animals such that the body weights (40-45 g) and serum glucose levels (≧300 mg/dl in fed state) were similar between groups. A minimum of 7 days was allowed for adaptation after arrival. All animals were maintained under controlled temperature (23° C.), relative humidity (50±5%) and light (7:00-19:00), and allowed free access to standard chow (Formulab Diet 5008, Quality Lab Products, Elkridge, Md.) and water.
Treatment cohorts were given daily oral doses of vehicle (1% hydroxypropylmethylcellulose), Compounds BI, CF, CG, CQ or phenylacetate for 17 days. At the end of the treatment period, blood samples were collected and serum glucose and triglycerides were measured.

Row | Compound | Glucose mg/dL (±SEM) (60 mg/kg daily oral) | Triglycerides (60 mg/kg daily oral) | Glucose mg/dL (±SEM) (100 mg/kg daily oral) | Triglycerides (100 mg/kg daily oral) | Glucose mg/dL (±SEM) (300 mg/kg daily oral) | Triglycerides (300 mg/kg daily oral)
1 | Cc1cccc(C)c1COc1cccc(C(=O)C(=O)O)c1 [CQ, [3-(2,6-Dimethylbenzyloxy)-phenyl]-oxoacetic acid] | 691 ± 37 mg/dL | 175 ± 25 mg/dL | 786 ± 65 mg/dL | 125 ± 10 mg/dL |  | 
2 | O=C(O)Cc1ccccc1 [Phenylacetate, reference compound] |  |  |  |  | 661 ± 64 mg/dL | 171 ± 33 mg/dL

Source: patent US7442796B2, “Compounds for the treatment of metabolic disorders” (Wellstat Therapeutics Corporation, priority 2003, dated 2008)
